Assays:
CD73 [1] = biological target: T1, CD73 (Homo sapiens, UniProt P21589); test: CD73 Cellular Assay; assay type: cell-based; parameters: 40 μL of MDA-MB-231 cells (ATCC, HTB-26, breast cancer); host or cells: MDA-MB-231; conditions: MDA-MB-231 cells; 200 μM AMP working solution; 45 min at 37° C.; malachite readout; read-out: Cellular IC50 against CD73
T1 sequence (P21589 27-574): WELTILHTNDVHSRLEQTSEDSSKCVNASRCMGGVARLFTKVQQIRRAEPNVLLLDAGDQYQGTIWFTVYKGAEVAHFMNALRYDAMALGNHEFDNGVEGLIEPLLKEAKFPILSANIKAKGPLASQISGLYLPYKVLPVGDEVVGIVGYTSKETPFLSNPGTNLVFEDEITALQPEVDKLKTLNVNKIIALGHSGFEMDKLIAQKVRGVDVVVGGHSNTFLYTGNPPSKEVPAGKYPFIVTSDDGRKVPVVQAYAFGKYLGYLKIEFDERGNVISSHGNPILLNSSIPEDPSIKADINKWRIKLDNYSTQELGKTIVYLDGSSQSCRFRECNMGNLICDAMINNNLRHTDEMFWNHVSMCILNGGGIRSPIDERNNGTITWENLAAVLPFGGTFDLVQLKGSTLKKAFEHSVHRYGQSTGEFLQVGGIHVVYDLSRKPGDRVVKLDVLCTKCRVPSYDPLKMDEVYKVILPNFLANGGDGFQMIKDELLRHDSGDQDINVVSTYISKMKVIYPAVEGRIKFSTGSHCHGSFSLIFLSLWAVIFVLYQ
Description: Compound serial dilution (1:3) was prepared with Echo 555 liquid handler (Labcyte) into the corresponding wells of a 384-well plate. 40 μL of MDA-MB-231 cells (ATCC, HTB-26, breast cancer, final concentration at 20,000 cells/mL) suspended in assay buffer (20 mM HEPES pH 7.4, 137 mM NaCl, 5.4 mM KCl, 1.3 mM CaCl2, 4.2 mM NaHCO3, 1 mg/mL glucose) were added into the corresponding wells of the plate. After incubating with compounds for 30 minutes, 40 μL of AMP working solution (200 μM AMP in assay buffer) was added into each well in the assay plate. The assay plate was then incubated in a 5% CO2 incubator (Thermo Fisher Scientific) at 37° C. for 45 min. After the reaction was completed, 50 μL of the supernatants was collected and transferred into a new 384 well plate. 10 μL of Malachite A was added to each well in the assay plate and incubated for 10 minutes. 10 μL of Malachite B was then added to each corresponding well of the plate and incubated for 30 minutes. Finally the absorbance value was read on the Envision plate reader at […]. Calculation percentage inhibition by using equation {% inhibition=100×[1−(X−MIN)/(MAX−MIN)]} where X equals to the well signal, Max equals signal of neutral control and MIN equals signal of inhibitor control.

CD73 [2] = biological target: T1, CD73; test: Human CD73 Biochemical Assay; conditions: 0.05 nM recombinant CD73; AMP 5.56 μM final; 10 min at room temperature; LC/MS adenosine readout; read-out: Enzymatic IC50 against human CD73
Description: The purpose of this assay is to identify and characterize inhibitors of human CD73 enzymatic activity. Compound serial dilution (1:3) was prepared with Echo 555 liquid handler (Labcyte) into the corresponding wells of a 384-well plate. 10 μL of enzyme working solution (containing 0.05 nM recombinant CD73 protein, 10 mM Tris pH 7.5, 100 mM NaCl, 0.01% BSA, 0.2 mM Octyl glucoside and 1 mM NaH2PO4) was added to the assay plate and incubated with compounds for 15 minutes at room temperature. After adding 15 μL of AMP working solution (Containing 10 mM Tris pH 7.5, 100 mM NaCl, 0.01% BSA, 0.2 mM Octyl glucoside, with 5.56 μM of AMP final concentration) and incubate for 10 min at room temperature. Stop the reaction by adding 75 μL of stop solution (5% TCA in H2O containing 250 nM 13C5-adenosine) to each well for 10 min incubation. After centrifugation, 75 μL of the mixture was transferred to a new 384-well plate for LC/MS analysis.
Samples from the 384-well plates, were loaded onto an autosampler deck, then injected with ADDA-LC-MS/MS. The aqueous mobile phase is 0.1% formic acid in water. The organic mobile phase is 0.1% formic acid in acetonitrile. Flow rate is maintained at 0.8 mL/minute using Shimadzu pumps. The column is ACE 5 Phenyl, 50×2.1 mm. The analysis was performed on a SCIEX triple quadrupole mass spectrometer operating in positive ion mode. The effluent from the HPLC column was directly introduced into the electrospray ionization (ESI). Multiple reaction monitoring (MRM) is used to determine analyte and internal standard (IS) responses. The MRM for adenosine is 268.1/136.1, for 13C5-Adenosine (IS) is 273.2/136.2. The data is calculated using the peak area ratio (PAR) semi-quantitative method.

Row | Structure (SMILES) | IC50 (CD73 [1]) [nM] | IC50 (CD73 [2]) [nM]
1 | Cn1nc(O[C@H](c2cc(OCC(F)(F)F)c(F)cn2)C(F)F)c2cc(-c3c[nH]c(=O)[nH]c3=O)nnc21 [Example 9A, 5-[3-[(1R)-2,2-difluoro-1-[5-fluoro-4-(2,2,2-trifluoroethoxy)-2-pyridyl]ethoxy]-1-methyl-pyrazolo[3,4-c]pyridazin-5-yl]-1H-pyrimidine-2,4-dione] | 0.73 | 0.11
2 | Cn1nc(O[C@H](c2ccnc(OCC(F)F)c2)C(F)F)c2cc(-c3n[nH]c(=O)[nH]c3=O)nnc21 [Example 13A, 6-[3-[(1R)-1-[2-(2,2-difluoroethoxy)-4-pyridyl]-2,2-difluoro-ethoxy]-1-methyl-pyrazolo[3,4-c]pyridazin-5-yl]-2H-1,2,4-triazine-3,5-dione] | 0.97 | 0.02
3 | COCCOc1cc([C@@H](Oc2nn(C)c3nnc(-c4c[nH]c(=O)[nH]c4=O)cc23)C(F)F)ccc1F [Example 15, 5-[3-[(1R)-2,2-difluoro-1-[4-fluoro-3-(2-methoxyethoxy)phenyl]ethoxy]-1-methyl-pyrazolo[3,4-c]pyridazin-5-yl]-1H-pyrimidine-2,4-dione] | 0.88 | 0.07
4 | Cn1nc(O[C@H](c2ccnc(OCC(C)(F)F)c2)C(F)F)c2cc(-c3c[nH]c(=O)[nH]c3=O)nnc21 [Example 16, 5-[3-[(1R)-1-[2-(2,2-difluoropropoxy)-4-pyridyl]-2,2-difluoro-ethoxy]-1-methyl-pyrazolo[3,4-c]pyridazin-5-yl]-1H-pyrimidine-2,4-dione] | 0.54 | 0.04
5 | C[C@@H](Nc1cc([C@@H](Oc2nn(C)c3nnc(-c4c[nH]c(=O)[nH]c4=O)cc23)C(F)F)ccn1)C(F)(F)F [Example 27, 5-[3-[(1R)-2,2-difluoro-1-[2-[[(1R)-2,2,2-trifluoro-1-methyl-ethyl]amino]-4-pyridyl]ethoxy]-1-methyl-pyrazolo[3,4-c]pyridazin-5-yl]-1H-pyrimidine-2,4-dione] | 0.48 | 0.04
6 | [2H]C([2H])([2H])C([2H])([2H])Oc1cc([C@@H](Oc2nn(C)c3nnc(-c4c[nH]c(=O)[nH]c4=O)cc23)C(F)F)ccn1 [Example 30, 5-[3-[(1R)-2,2-difluoro-1-[2-(1,1,2,2,2-pentadeuterioethoxy)-4-pyridyl]ethoxy]-1-methyl-pyrazolo[3,4-c]pyridazin-5-yl]-1H-pyrimidine-2,4-dione] | 0.6 | 0.05
7 | Cn1nc(O[C@H](c2ccnc(N3CCC(F)(F)CC3)c2)C(F)F)c2cc(-c3c[nH]c(=O)[nH]c3=O)nnc21 [Example 31, 5-[3-[(1R)-1-[2-(4,4-difluoro-1-piperidyl)-4-pyridyl]-2,2-difluoro-ethoxy]-1-methyl-pyrazolo[3,4-c]pyridazin-5-yl]-1H-pyrimidine-2,4-dione] | 0.55 | 0.05
8 | Cn1nc(O[C@H](c2ccnc(NC3CCC(F)(F)CC3)c2)C(F)F)c2cc(-c3c[nH]c(=O)[nH]c3=O)nnc21 [Example 32, 5-[3-[(1R)-1-[2-[(4,4-difluorocyclohexyl)amino]-4-pyridyl]-2,2-difluoro-ethoxy]-1-methyl-pyrazolo[3,4-c]pyridazin-5-yl]-1H-pyrimidine-2,4-dione] | 0.38 | 0.05

Second part, the compound after the results:

Row | IC50 (CD73 [1]) [nM] | IC50 (CD73 [2]) [nM] | Structure (SMILES)
9 | 0.59 | 0.08 | Cn1nc(O[C@H](c2cc(OCC(F)F)ccn2)C(F)F)c2cc(-c3c[nH]c(=O)[nH]c3=O)nnc21 [Example 7, 5-[3-[(1R)-1-[4-(2,2-difluoroethoxy)-2-pyridyl]-2,2-difluoro-ethoxy]-1-methyl-pyrazolo[3,4-c]pyridazin-5-yl]-1H-pyrimidine-2,4-dione]
10 | 0.49 | 0.06 | CCOc1ccnc([C@@H](Oc2nn(C)c3nnc(-c4c[nH]c(=O)[nH]c4=O)cc23)C(F)F)c1 [Example 20, 5-[3-[(1R)-1-(4-ethoxy-2-pyridyl)-2,2-difluoro-ethoxy]-1-methyl-pyrazolo[3,4-c]pyridazin-5-yl]-1H-pyrimidine-2,4-dione]
11 | 0.73 | 0.09 | Cn1nc(O[C@H](c2cc(OCC#N)ccn2)C(F)F)c2cc(-c3c[nH]c(=O)[nH]c3=O)nnc21 [Example 21, 2-[[2-[(1R)-1-[5-(2,4-dioxo-1H-pyrimidin-5-yl)-1-methyl-pyrazolo[3,4-c]pyridazin-3-yl]oxy-2,2-difluoro-ethyl]-4-pyridyl]oxy]acetonitrile]
12 | 0.74 | 0.08 | Cn1nc(O[C@H](c2cc(OCC3(C(F)(F)F)CC3)ccn2)C(F)F)c2cc(-c3c[nH]c(=O)[nH]c3=O)nnc21 [Example 23, 5-[3-[(1R)-2,2-difluoro-1-[4-[[1-(trifluoromethyl)cyclopropyl]methoxy]-2-pyridyl]ethoxy]-1-methyl-pyrazolo[3,4-c]pyridazin-5-yl]-1H-pyrimidine-2,4-dione]

Source: patent US20260317332A1, “BICYCLIC HETEROCYCLE COMPOUNDS FOR THE TREATMENT OF CANCER” (Hoffmann-La Roche Inc., priority 2023, published 2026)
